Laboratory results from patent US8546320B2, “Hsp9O-targeted anti-cancer chimeric peptide” (Kyoto University, priority 2008, dated 2013).
Where a SMILES comes first, the peptide text is derived from it.

How the values were obtained:
Caki-1 = assay type: cell-based, human; conditions: Caki-1; for Anti-cancer activity (% relative to wild-type peptide) / Decrease in cell survival rate (% relative to wild-type peptide): wild-type peptide = 100%
Protocol: A total of 3×10^3 cells were inoculated per well on a 96 well plate and cultured in a medium containing 10% FBS for 24 hours, and incubated with 100 μl of a peptide having a gradual increase in concentration at 37° C. for 48 to 72 hours. The survival rate of the cells was measured by using WST-8 solution (Cell Count Reagent SF; Nacalai Tesque, Inc.).
(§1) Respective variant peptides were subjected to cell viability assay. Specifically, Caki-1 (American Type Culture Collection (Manassas, Va.) was inoculated in a total amount of 3×10^3 cells per well on a 96 well plate (Nunc™); the cells were cultured in a medium (DMEM (Tesque, Inc.) containing 10% FBS (fetal bovine serum; Biowest)) for 24 hours and incubated with 100 μl of a peptide having a gradual increase in concentration at 37° C. for 48 to 72 hours. The cell survival rate was measured by using WST-8 solution (Cell Count Reagent SF; Nacalai Tesque, Inc.) and compared with that of the wild-type Antp-TPR peptide.
as §1, with “medium” for “medium (DMEM (Tesque, Inc.)”, “FBS” for “FBS (fetal bovine serum; Biowest))”

cancer cells = assay: Cell viability assay, summary statements on cancer cells; assay type: cell-based; conditions: single mutation in TPR or Antp region of Antp-TPR

Compound | killing effect compared with the wild-type peptide (Caki-1) | Anti-cancer activity (% relative to wild-type peptide) (Caki-1) [%] | Decrease in cell survival rate (% relative to wild-type peptide) (Caki-1) [%] | effect compared with the wild-type protein (summary of mutations) (cancer cells)
CC[C@H](C)[C@H](NC(=O)[C@H](CCCNC(=N)N)NC(=O)[C@H](C)NC(=O)[C@H](Cc1ccc(O)cc1)NC(=O)[C@H](C)NC(=O)[C@H](CCCCN)NC(=O)[C@H](CCCCN)NC(=O)[C@H](CCCCN)NC(=O)[C@H](Cc1c[nH]c2ccccc12)NC(=O)[C@H](CCCCN)NC(=O)[C@H](CCSC)NC(=O)[C@H](CCCNC(=N)N)NC(=O)[C@H](CCCNC(=N)N)NC(=O)[C@H](CC(N)=O)NC(=O)[C@H](CC(N)=O)NC(=O)[C@H](Cc1ccccc1)NC(=O)[C@H](Cc1c[nH]c2ccccc12)NC(=O)[C@@H](NC(=O)[C@H](CCCCN)NC(=O)[C@@H](NC(=O)[C@H](CCC(N)=O)NC(=O)[C@@H](N)CCCNC(=N)N)[C@@H](C)CC)[C@@H](C)CC)C(=O)NCC(=O)N[C@@H](CC(N)=O)C(=O)N[C@@H](CO)C(=O)N[C@@H](Cc1ccc(O)cc1)C(=O)N[C@@H](Cc1ccccc1)C(=O)N[C@@H](CCCCN)C(=O)O [Antp Q8N-TPR] (H-RQIKIWFNNRRMKWKKKAYARIGNSYFK-OH; N-terminus and C-terminus assumed) | stronger than that of the wild-type peptide | 109.65 | 519.29 | effect similar to that of the wild-type protein
CC[C@H](C)[C@H](NC(=O)[C@H](CCCNC(=N)N)NC(=O)[C@H](C)NC(=O)[C@H](Cc1ccc(O)cc1)NC(=O)[C@H](C)NC(=O)[C@H](CCCCN)NC(=O)[C@H](CCCCN)NC(=O)[C@H](CCCCN)NC(=O)[C@H](Cc1c[nH]c2ccccc12)NC(=O)[C@H](CCCCN)NC(=O)[C@H](CCSC)NC(=O)[C@H](CCCNC(=N)N)NC(=O)[C@H](CCCNC(=N)N)NC(=O)[C@H](CCC(N)=O)NC(=O)[C@H](CCC(N)=O)NC(=O)[C@H](Cc1ccccc1)NC(=O)[C@H](Cc1c[nH]c2ccccc12)NC(=O)[C@@H](NC(=O)[C@H](CCCCN)NC(=O)[C@@H](NC(=O)[C@H](CCC(N)=O)NC(=O)[C@@H](N)CCCNC(=N)N)[C@@H](C)CC)[C@@H](C)CC)C(=O)NCC(=O)N[C@@H](CC(N)=O)C(=O)N[C@@H](CO)C(=O)N[C@@H](Cc1ccc(O)cc1)C(=O)N[C@@H](Cc1ccccc1)C(=O)N[C@@H](CCCCN)C(=O)O [Antp N9Q-TPR] (H-RQIKIWFQQRRMKWKKKAYARIGNSYFK-OH; N-terminus and C-terminus assumed) | stronger than that of the wild-type peptide | 110.59 | 881.03 | effect higher than the wild-type protein
CC[C@H](C)[C@H](NC(=O)[C@H](CCCNC(=N)N)NC(=O)[C@H](C)NC(=O)[C@H](Cc1ccc(O)cc1)NC(=O)[C@H](C)NC(=O)[C@H](CCCCN)NC(=O)[C@H](CCCCN)NC(=O)[C@H](CCCCN)NC(=O)[C@H](Cc1c[nH]c2ccccc12)NC(=O)[C@H](CCCCN)NC(=O)[C@H](CCSC)NC(=O)[C@H](CCCNC(=N)N)NC(=O)[C@H](CCCNC(=N)N)NC(=O)[C@H](CC(N)=O)NC(=O)[C@H](CCC(N)=O)NC(=O)[C@H](Cc1ccccc1)NC(=O)[C@H](Cc1c[nH]c2ccccc12)NC(=O)[C@@H](NC(=O)[C@H](CCCNC(=N)N)NC(=O)[C@@H](NC(=O)[C@H](CCC(N)=O)NC(=O)[C@@H](N)CCCNC(=N)N)[C@@H](C)CC)[C@@H](C)CC)C(=O)NCC(=O)N[C@@H](CC(N)=O)C(=O)N[C@@H](CO)C(=O)N[C@@H](Cc1ccc(O)cc1)C(=O)N[C@@H](Cc1ccccc1)C(=O)N[C@@H](CCCCN)C(=O)O [Antp K4R-TPR] (H-RQIRIWFQNRRMKWKKKAYARIGNSYFK-OH; N-terminus and C-terminus assumed) | stronger than that of the wild-type peptide | 109.86 | 573.28 | effect higher than the wild-type protein
CC[C@H](C)[C@H](NC(=O)[C@H](CCCNC(=N)N)NC(=O)[C@H](C)NC(=O)[C@H](Cc1ccc(O)cc1)NC(=O)[C@H](C)NC(=O)[C@H](CCCCN)NC(=O)[C@H](CCCCN)NC(=O)[C@H](CCCCN)NC(=O)[C@H](Cc1c[nH]c2ccccc12)NC(=O)[C@H](CCCNC(=N)N)NC(=O)[C@H](CCSC)NC(=O)[C@H](CCCNC(=N)N)NC(=O)[C@H](CCCNC(=N)N)NC(=O)[C@H](CC(N)=O)NC(=O)[C@H](CCC(N)=O)NC(=O)[C@H](Cc1ccccc1)NC(=O)[C@H](Cc1c[nH]c2ccccc12)NC(=O)[C@@H](NC(=O)[C@H](CCCCN)NC(=O)[C@@H](NC(=O)[C@H](CCC(N)=O)NC(=O)[C@@H](N)CCCNC(=N)N)[C@@H](C)CC)[C@@H](C)CC)C(=O)NCC(=O)N[C@@H](CC(N)=O)C(=O)N[C@@H](CO)C(=O)N[C@@H](Cc1ccc(O)cc1)C(=O)N[C@@H](Cc1ccccc1)C(=O)N[C@@H](CCCCN)C(=O)O [Antp K13R-TPR] (H-RQIKIWFQNRRMRWKKKAYARIGNSYFK-OH; N-terminus and C-terminus assumed) | stronger than that of the wild-type peptide | 108.64 | 360.96 | effect similar to that of the wild-type protein
CC[C@H](C)[C@H](NC(=O)[C@H](CCCNC(=N)N)NC(=O)[C@H](C)NC(=O)[C@H](Cc1ccc(O)cc1)NC(=O)[C@H](C)NC(=O)[C@H](CCCCN)NC(=O)[C@H](CCCCN)NC(=O)[C@H](CCCCN)NC(=O)[C@H](Cc1c[nH]c2ccccc12)NC(=O)[C@H](CCCCN)NC(=O)[C@H](CCSC)NC(=O)[C@H](CCCCN)NC(=O)[C@H](CCCNC(=N)N)NC(=O)[C@H](CC(N)=O)NC(=O)[C@H](CCC(N)=O)NC(=O)[C@H](Cc1ccccc1)NC(=O)[C@H](Cc1c[nH]c2ccccc12)NC(=O)[C@@H](NC(=O)[C@H](CCCCN)NC(=O)[C@@H](NC(=O)[C@H](CCC(N)=O)NC(=O)[C@@H](N)CCCNC(=N)N)[C@@H](C)CC)[C@@H](C)CC)C(=O)NCC(=O)N[C@@H](CC(N)=O)C(=O)N[C@@H](CO)C(=O)N[C@@H](Cc1ccc(O)cc1)C(=O)N[C@@H](Cc1ccccc1)C(=O)N[C@@H](CCCCN)C(=O)O [Antp R11K-TPR] (H-RQIKIWFQNRKMKWKKKAYARIGNSYFK-OH; N-terminus and C-terminus assumed) | stronger than that of the wild-type peptide | 104.39 | 158.09 | effect similar to that of the wild-type protein
CC[C@H](C)[C@H](NC(=O)[C@H](CCCNC(=N)N)NC(=O)[C@H](C)NC(=O)[C@H](Cc1ccc(O)cc1)NC(=O)[C@H](C)NC(=O)[C@H](CCCCN)NC(=O)[C@H](CCCNC(=N)N)NC(=O)[C@H](CCCCN)NC(=O)[C@H](Cc1c[nH]c2ccccc12)NC(=O)[C@H](CCCCN)NC(=O)[C@H](CCSC)NC(=O)[C@H](CCCNC(=N)N)NC(=O)[C@H](CCCNC(=N)N)NC(=O)[C@H](CC(N)=O)NC(=O)[C@H](CCC(N)=O)NC(=O)[C@H](Cc1ccccc1)NC(=O)[C@H](Cc1c[nH]c2ccccc12)NC(=O)[C@@H](NC(=O)[C@H](CCCCN)NC(=O)[C@@H](NC(=O)[C@H](CCC(N)=O)NC(=O)[C@@H](N)CCCNC(=N)N)[C@@H](C)CC)[C@@H](C)CC)C(=O)NCC(=O)N[C@@H](CC(N)=O)C(=O)N[C@@H](CO)C(=O)N[C@@H](Cc1ccc(O)cc1)C(=O)N[C@@H](Cc1ccccc1)C(=O)N[C@@H](CCCCN)C(=O)O [Antp K16R-TPR] (H-RQIKIWFQNRRMKWKRKAYARIGNSYFK-OH; N-terminus and C-terminus assumed) | stronger than that of the wild-type peptide | 110.26 | 709.01 | effect higher than the wild-type protein
